Test results as given in PMC3997506, “Novel PPAR Pan Agonist, ZBH Ameliorates Hyperlipidemia and Insulin Resistance in High Fat Diet Induced Hyperlipidemic Hamster” (PLoS ONE, 2014).

Legend:
[1] = biological target: T1, hPPARα-LBD (Homo sapiens, UniProt Q07869); experiment: Ligand binding assay with SPR (Biacore T100); conditions: steady state affinity fitting
T1 construct: purchased Cayman chemical
T1 sequence (Q07869 239-466 limits assumed): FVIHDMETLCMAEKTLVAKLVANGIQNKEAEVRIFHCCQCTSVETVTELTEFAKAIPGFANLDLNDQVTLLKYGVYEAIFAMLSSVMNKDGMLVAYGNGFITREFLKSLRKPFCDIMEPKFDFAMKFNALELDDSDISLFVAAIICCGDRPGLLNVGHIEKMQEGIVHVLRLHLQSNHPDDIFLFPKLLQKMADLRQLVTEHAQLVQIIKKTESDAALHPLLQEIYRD
Description: (§1) The binding affinities of ZBH for PPARα-LBD, PPARδ-LBD or PPARγ-LBD (Cayman chemical, MI, USA) were assayed using SPR-based Biacore T100 (GE Healthcare/Biacore, Uppsala, Sweden) as described previously, [20].

[2] = biological target: T2, hPPARδ-LBD (Homo sapiens, UniProt Q03181); experiment: Ligand binding assay with SPR (Biacore T100); conditions: steady state affinity fitting
T2 construct: purchased Cayman chemical
T2 sequence (Q03181 211-439 limits assumed): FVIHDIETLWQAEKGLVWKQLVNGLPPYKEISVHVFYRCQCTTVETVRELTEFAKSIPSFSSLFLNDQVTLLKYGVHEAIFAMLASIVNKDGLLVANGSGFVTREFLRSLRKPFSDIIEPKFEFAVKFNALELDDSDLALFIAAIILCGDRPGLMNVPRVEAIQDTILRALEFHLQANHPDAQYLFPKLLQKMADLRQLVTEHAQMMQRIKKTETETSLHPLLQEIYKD
Description: as §1

[3] = system: 3T3-L1 adipocytes; experiment: Adiponectin expression in 3T3-L1 adipocytes; assay type: cell-based; conditions: 10–100 µM, dose dependent, data not shown
[4] = system: SIRT1 mRNA; experiment: Quantitative real-time PCR of tissues of hyperlipidemic hamsters; assay type: in vivo, golden Syrian hamsters (Mesocricetus auratus); conditions: short-term (3 days) and chronic (5 weeks) treatment
Description: To determine the relative mRNA expression levels of lipid metabolism-related genes, total RNA was isolated from the liver, white adipose tissue (WAT) or muscle and real-time PCR was performed with the ABI PRISM 7300 sequence detection system (Applied Biosystems, Warrington, UK) as previously described. The relative amount of all mRNAs was calculated using the comparative CT method. Target gene expression is presented relative to β-actin expression.
Figure 9 Effects of ZBH on gene expression in hyperlipidemic hamsters. Relative gene expression of the indicated genes in the liver (A and B), WAT (C and D) and skeletal muscle (E and F) of hyperlipidemic hamsters following 3 days (A, C and E) and/or 5 weeks (B, D and F) of ZBH or BEZ administration was determined by QPCR. Results are normalized to β-actin and expressed as mean fold increase of mRNA ±SD compared to the normal hamsters (NC). n = 3. *P<0.05, **P<0.01, ***P<0.001 vs. MC group.

[5] = stated in Introduction, no method given; cited from earlier work
[6] = system: Kunming mice; conditions: stated in Introduction, no method given; cited from earlier work
[7] = system: hyperlipidemic hamsters; experiment: High fat diet induced hyperlipidemic hamster, 5-week oral treatment; assay type: in vivo, golden Syrian hamsters (Mesocricetus auratus)
From the text: Male golden Syrian hamsters (Mesocricetus auratus) weighing 90–110 g were purchased from Vital River Laboratory Animal Technology Co. Ltd. (Beijing, China). Animals were maintained on a 12-h day/night schedule with ad libitum access to nutrition and water. […] Blood samples were taken after overnight fasting from the suborbital sinus under light sevoflurane anesthesia on the fifth and tenth day for measurement of serum total cholesterol (TC) and triglyceride (TG). […] The dose selection of ZBH was based on previous pilot study. Hamsters with standard rodent diet were used as normal control. Compounds were dissolved in DMSO and suspended in 0.5% methylcellulose and administered by gavage once a day for 5 weeks. Individual body weight and cage food consumption were measured every two days. Dynamic serum lipid monitoring was performed weekly and blood samples were taken from the retro-orbital venous plexus under light ether anesthesia using a glass capillary tube after overnight fasting. Then the animal were sacrificed by cervical decapitation under anesthesia, and the liver, heart, epididymal white adipose tissue (eWAT) and gastrocnemius muscle were excised, rapidly frozen in liquid nitrogen and maintained at −80°C until analysis. Serum TC, TG and free fatty acids (FFA) were measured by using commercial kit (Nanjing Jiancheng, Bioengineering Institute, Nanjing, China) as previously described. Serum glucose, low-density lipoprotein cholesterol (LDLc) and high-density lipoprotein cholesterol (HDLc) were measured with the Hitachi 917 automated biochemistry analyzer (Roche diagnostics, Indianapolis, USA). Serum insulin was quantified by ELISA using a hamster insulin assay kit (Crystal Chem Inc., IL, and USA). The insulin sensitivity index (ISI) was calculated by the values of fasting blood glucose (FBG) and fasting blood insulin (FBI). ISI = 1/(FBG×FBI) 1000 [21]. […] After evaporation of the chloroform under nitrogen, lipid samples were resuspended in isopropyl alcohol, and TG and TC content was determined by enzymatic assay. […] Frozen liver samples were used to perform hepatic lipid specific staining with Oil Red O staining.

COc1ccc(/C=C/c2cc(OC)cc(OCCCC(C)(C)C(=O)O)c2)cc1 [ZBH, (E)-5-(3-methoxy-5-(4-methoxystyryl)phenoxy) -2,2-dimethylpentanoic acid]
Kd [1]: 826 nM
Kd [2]: 4170 nM
adiponectin expression [3]: dramatically up-regulate
SIRT1 mRNA expression in liver, adipose tissue and skeletal muscle [4]: upregulated
oral bioavailability [5]: 67%
oral LD50 [6]: > 1200 mg/kg
Kidney weight ([7]; 6.25 mg/kg, 5 weeks): 1.01 ± 0.08 g
Liver weight ([7]; 6.25 mg/kg, 5 weeks): 7.78 ± 0.23 g
Retroperitoneal WAT ([7]; 6.25 mg/kg, 5 weeks): 13.93 ± 0.82 g
Subcutaneous WAT ([7]; 6.25 mg/kg, 5 weeks): 7.28 ± 0.32 g
iBAT ([7]; 6.25 mg/kg, 5 weeks): 0.23 ± 0.01 g
Kidney weight ([7]; 12.5 mg/kg, 5 weeks): 0.95 ± 0.09 g
Liver weight ([7]; 12.5 mg/kg, 5 weeks): 7.77 ± 0.31 g
Retroperitoneal WAT ([7]; 12.5 mg/kg, 5 weeks): 12.63 ± 0.66 g
Subcutaneous WAT ([7]; 12.5 mg/kg, 5 weeks): 6.53 ± 0.42 g
iBAT ([7]; 12.5 mg/kg, 5 weeks): 0.21 ± 0.01 g
maximum decrease in serum insulin levels ([7]; 25 mg kg^−1, 5 weeks): 84%
serum FFA ([7]; 25 mg kg^−1, after one-week treatment until the end): lowered remarkably
Kidney weight ([7]; 25 mg/kg, 5 weeks): 0.94 ± 0.05 g
Liver weight ([7]; 25 mg/kg, 5 weeks): 8.52 ± 0.45 g
Retroperitoneal WAT ([7]; 25 mg/kg, 5 weeks): 10.43 ± 0.39 g
Subcutaneous WAT ([7]; 25 mg/kg, 5 weeks): 5.19 ± 0.12 g
iBAT ([7]; 25 mg/kg, 5 weeks): 0.19 ± 0.01 g
hepatic TG contents / hepatic steatosis ([7]; 5 weeks, Figure 7): greatly lowered
serum GOT, GPT, CK and creatinine levels ([7]; 5 weeks, Figure S1): not altered
increase of the weight of the liver ([7]; 6.25-25 mg/kg, after 5 weeks, vs MC): 7%∼17
serum TG, TC and LDLc ([7]; 12.5 or 25 mg kg^−1): time and dose-dependent decrease
impact on food intake ([7]; Figure 5B): negligible
body weight gain ([7]; ZBH 25 mg/kg, bezafibrate 50 mg/kg, Figure 5A): gained less weight
increase in relative liver weight ([7]; highest dose, relative to MC): 17%
